Test results taken from paper PMC8162438, “Cancer cell-selective modulation of mitochondrial respiration and metabolism by potent organogold(III) dithiocarbamates” (Chemical Science, 2020).
“Also recorded” adds a separate entry of the source.

Experiment: UV-vis stability in PBS, DMEM and RPMI-1640
Assay type: physicochemical
Details: 50 μM, DMEM, RPMI-1640, 37 °C, over 24 h
From the text: We next evaluated the stability of all ten complexes in three relevant biological media, namely, PBS (phosphate-buffered saline), DMEM (Dulbecco's modified eagle medium), and RPMI-1640 (Roswell Park Memorial Institute-1640). RPMI-1640 contain several biological nucleophiles such as amino acids and extracellular relevant levels of GSH, which are common sources of reductants. Development of new drug molecules require proper characterization of compound stability in solution. To evaluate their stability, the complexes were prepared as a stock solution in DMSO (5 mM) and diluted with PBS or DMEM at room temperature to a final concentration of 50 μM. […]
UV-vis Stability in DMEM, PBS and RPMI-1640 at 37 °C. All spectra were recorded on a Shimadzu UV-1280 model instrument. […] Time periods of t = 0 h (after preparation of sample), 1 h, 6 h, 12 h, and 24 h were recorded. […] The absorbance profile was scanned from 650 nm to 240 nm for each scan. For each complex, the data were normalized to the highest absorbance at t = 0 h and plotted in GraphPad Prism 6. […]
Reactivity with GSH (UV-vis Spectroscopy). […] All spectra were recorded on a Shimadzu UV-1280 model instrument.
A blank was prepared by mixing 50 µL of DMSO and 1.95 mL of PBS. Time intervals of 5 minutes and 12 h were recorded. […] For each reaction, the spectrum was normalized to the highest absorbance and plotted in GraphPad Prism 6. […]

Row | Structure (SMILES) | Stability in biological media (UV-vis absorbance)
1 | C[N+](C)=C1[S][Au-2]2([S]1)[c]1ccccc1C(=O)c1cccc[n+]12.F[P-](F)(F)(F)(F)F (centres unmarked) [1a] | no significant decrease in absorbance
2 | C[N+](C)=C1[S][Au-2]2([S]1)[c]1ccccc1Cc1cccc[n+]12.F[P-](F)(F)(F)(F)F (centres unmarked) [2a] | higher stability in PBS, and DMEM; also recorded: no significant decrease in absorbance
